From publication PMC2974656, “Selective killing of human immunodeficiency virus infected cells by non-nucleoside reverse transcriptase inhibitor-induced activation of HIV protease” (Retrovirology, 2010)
Read-outs that look alike come from different tables or passages of the source.

Tests used:
[1] = tested on: intracellular Gag processing by HIV PR; type: cell-based, HIV-1; details: for Enhancement of alpha complementation: 0.03 to 10 μM NNRTI, result in words
Method: In previous studies, high concentrations of NNRTI (5 μM) were required to observe NNRTI mediated activation of intracellular HIV PR activity. […]. Towards this end, we developed a biochemical assay for gel independent quantitation of intracellular Gag processing by HIV PR in the context of a virus producing cell. We had previously shown that additional protein domains, consisting of small epitope tags or even the 27 kDa green fluorescent protein (EGFP), can be inserted between the MA and CA domains of the Gag and Gag-Pol polyproteins without affecting polyprotein production or processing by HIV PR [36]. Based on this, we designed a HIV reporter construct which contained a small N-terminal fragment ('alpha peptide') of Escherichia coli beta-galactosidase (β-Gal), flanked by two HIV PR recognition sites, between the MA and CA coding sequences of Gag (Figure 1A). […] This so called alpha complementation principle can be exploited for use in mammalian cells and has been employed for the establishment of various cell based biochemical assay systems. We reasoned that embedding of the small alpha peptide within the multi-domain polyproteins Gag or Gag-Pol, respectively, should impair its productive association with the omega subunit, while proteolytic release of the alpha peptide from the polyprotein by PR would allow the formation of enzymatically active β-Gal. This should allow us to monitor intracellular Gag and Gag-Pol processing through increased β-Gal activity.
Reconstituted β-Gal activity in cell lysates was measured by cleavage of the chromogenic substrate CPRG [42] as described in Methods.
The activity of β-Gal in cell lysates from transfected 293T cells was measured by enzymatic cleavage of the chromogenic β-Gal substrate chlorphenolred-β-D-galactopyranoside (CPRG, Roche; [42]). At 44 h post transfection, cells were briefly rinsed with PBS and suspended in reporter gene assay lysis buffer (Roche, 600 μl per 6-well dish) supplemented with a protease inhibitor mix (Roche). Cell suspensions were incubated for 10 min at room temperature and cell debris was subsequently removed by brief centrifugation. Five μl of supernatant were diluted in 96-well plates with 95 μl CPRG reaction buffer (50 mM potassium phosphate, pH 7.5, 1 mM MgCl2) and pre-warmed for 5 min to 37°C. 100 μl of pre-warmed reaction mix (100 μM CPRG in CPRG reaction buffer supplemented with protease inhibitor cocktail and 40 μM β-mercaptoethanol) were added and β-Gal mediated cleavage of CPRG was monitored by recording absorption at 592 nm every 2 min for 20 min at 37°C using a TECAN Safire multi-well reader. OD592 values were plotted over time and relative reaction rates (OD592/min) were determined from the initial linear velocities.

[2] = Cytotoxicity on uninfected control cells, EGFP fluorescence per well; type: cell-based; details: human
Method: (§1) The cytotoxicity of inhibitors was determined in parallel on MT4-CMV-EGFP control cells and on MT4-LTR-EGFP-IIIB virus producing cells, respectively.

293T cells = assay: Microscopically detectable impairment of cell growth of transfected 293T cells; type: cell-based; details: high NNRTI concentrations (5 μM and above)
Method: At 44 h post transfection, cell lysates were analyzed for β-Gal activity.

HIV-1IIIB = assay: Direct antiviral activity: MT4-LTR-EGFP cells infected with HIV-1IIIB, EGFP fluorescence; type: cell-based; details: read-out: Inhibition of HIV replication in vitro EC50
Method: After 3 days of incubation, infected cells were quantified by determination of total EGFP fluorescence per well based on microscopy and subsequent image analysis. Threshold values were determined from the average pixel value plus 6 standard deviations from the uninfected control wells, and the median threshold from all control wells on a plate was defined as baseline GFP expression. Intensity values for the sample wells were then determined by subtracting the background threshold from each pixel value obtained from the image of the respective well and calculating the sum of net pixel intensities. Percent inhibition was calculated as 100 * (1 - (Sample - CC)/(VC - CC)).

RT heterodimer (p66/p51) = biological target: T1, RT heterodimer (p66/p51) (Human immunodeficiency virus type 1 group M subtype B, UniProt P04585); assay: cell-based; type: cell-based, HIV-1; details: for Promotion of RT dimerization, in words: summary of Table 1
T1 construct: the bait protein (p66) was fused to the C-terminus of a chimeric receptor; expressed in transfected cells; host or cells: mammalian cells
Description: RT heterodimer formation was monitored using a mammalian two hybrid system described previously. In brief, the bait protein (p66) was fused to the C-terminus of a chimeric receptor consisting of the extracellular part of the erythropoietin receptor and the intracellular part of the leptin receptor incapable of STAT activation. The prey protein (p51) was coupled to a part of the cytoplasmic tail of the gp130 chain carrying several STAT3 recruitment domains. Interaction of bait and prey protein leads to functional complementation of STAT3 activity, which results in Epo dependent induction of a STAT3-responsive luciferase reporter gene. Enhancement of this interaction by the addition of compounds can thus be measured by an increase of luciferase expression.

[3] = tested on: intracellular HIV PR activity; design: method as in PMID 17096588; details: 5 μM NNRTI; cited from earlier work
[4] = tested on: MT4-CMV-EGFP control cells; assay: Cytotoxicity on uninfected control cells, EGFP fluorescence per well; type: cell-based
Method: as §1

[5] = tested on: MT4-LTR-EGFP-IIIB HIV-1 producing cells; assay: in vitro; type: cell-based; details: for CC50: 4 days; for Cytotoxicity on MT4-LTR-EGFP-IIIB cells, in words: summary of Table 1
Method: as §1

in vitro = type: cell-based; details: human, 4 days, no DRV; mean ± SD; tested up to 10 μM; read-out: Cytotoxicity on MT4-LTR-EGFP-IIIB HIV-1 producing cells CC50
Method: as §1

[6] = tested on: Gag processing in MT-4-IIIB cells; assay: Immunoblot of Gag processing in chronically infected MT-4 cells; type: cell-based, HIV-1
[7] = tested on: HXB2D-EGFP infected CD4 positive cells isolated from PBMC; assay: Killing of HIV-1 infected CD4 positive primary T-cells, flow cytometry; type: cell-based, human
Method: To validate our results obtained for the persistently infected cell line in a more relevant cell system we performed additional infection experiments using human peripheral blood mononuclear cells (PBMC). […]. PBMC isolated from healthy blood donors were activated and infected with a replication competent HIV-1 derivative which carries a gfp gene in the nef locus. The co-receptor antagonist AMD-3100 was added at day 2 post infection to prevent further viral spread. This was done to distinguish the proposed killing of infected cells from the inhibitory effect of NNRTIs and PIs on virus replication. […]. […] Similar results were obtained upon infection of CD4-positive primary T-cells with an EGFP-expressing virus (Figure 4B).
Figure 4 NNRTI induced selective killing of HIV-1 infected primary human cells. (A) PBMC prepared from buffy coats of healthy blood donors were infected with HIV-1AGFP. At day 2 post infection, 100 ng/ml AMD-3100 was added to all samples to prevent further infection. […] After further incubation for 5 days, cells were harvested and analyzed for the proportion of infected GFP expressing cells by flow cytometry. […] P-values were calculated using a two-tailed unpaired t-test (GraphPad Prism). Values were normalized to the respective solvent control. (B) CD4 positive cells isolated from PBMC were infected with HXB2D-EGFP. […] After further incubation for 3 days, cells were harvested and analyzed for the proportion of infected cells by flow cytometry. […] Asterisks: non-infected controls.
Peripheral blood mononuclear cells (PBMC) were purified from buffy coats of HIV-negative blood donors, grown in supplemented RPMI 1640 and stimulated by the addition of 10 ng/ml IL-2 (Biomol) and 2 μg/ml PHA (Sigma). PBMC pooled from two donors each were used for infection. […] For infection of PBMC, the HIV-1 derivatives HIV-1-AGFP [49] carrying the gfp gene fused to the codon for amino acid 16 of Nef in pNL4-3, or HXB2D-EGFP [60], which carries an egfp gene in the place of the viral nef open reading frame, were used as indicated. […]

[8] = biological target: omega fragment of beta-galactosidase (inactive fragment lacking amino acids 11-41), encoded by pCMVω (Escherichia coli)
HIV-1AGFP infected PBMC = assay: Killing of HIV-1 infected PBMC, proportion of GFP expressing cells by flow cytometry; type: cell-based, human; details: 1 μM NNRTI, added day 2 post infection with AMD-3100, 5 days
Method: PBMC isolated from healthy blood donors were activated and infected with a replication competent HIV-1 derivative which carries a gfp gene in the nef locus [49]. The co-receptor antagonist AMD-3100 was added at day 2 post infection to prevent further viral spread.

[9] = 293T cells, 44 h post transfection
[10] = MT4-CMV-EGFP control cells (uninfected), 4 days, mean ± SD, tested up to 10 μM, read-out: Cytotoxicity on MT4-CMV-EGFP control cells CC50
[11] = Human immunodeficiency virus 1, 72 h, MT4-LTR-EGFP cells, HIV-1IIIB MOI 0.01, 3 days, mean ± SD of three or more measurements
[12] = no DRV, mean ± SD, tested up to 10 μM, read-out: Cytotoxicity on MT4-LTR-EGFP-IIIB HIV-1 producing cells CC50
[13] = MT4-LTR-EGFP cells, HIV-1IIIB MOI 0.01, 3 days, mean ± SD of three or more measurements
[14] = concentration enhancing luciferase signal by 50% over control, read-out: Enhancement of RT-Dimerization EC50

Cc1cc(C#N)cc(C)c1Oc1nc(Nc2ccc(C#N)cc2)nc(N)c1Br [ETV, etravirine]
Concentration required to achieve the maximal effect on β-Gal activity [1, 9]: ~ 1 μM | CC50 at 4 days [2, 10]: > 10000 nM | Impairment of cell growth with decrease in β-Gal activity indicative of cytotoxic effects (293T cells): most pronounced | EC50 (HIV-1IIIB; [11]): 3.2 ± 5 nM | EC50 (RT heterodimer (p66/p51)): 270 nM

Cc1ccnc2c1NC(=O)c1cccnc1N2C1CC1 [NVP, nevirapine]
Enhancement of alpha complementation [1]: little or no enhancement | CC50 at 4 days [2, 10]: > 10000 nM | Stimulation of Gag or Gag-Pol processing [3]: did not stimulate | EC50 (HIV-1IIIB; [11]): 42 ± 20 nM

CC(C)Nc1cccnc1N1CCN(C(=O)c2cc3cc(NS(C)(=O)=O)ccc3[nH]2)CC1 [DLV, delavirdine]
Stimulation of Gag or Gag-Pol processing [3]: did not stimulate

COP(=O)(c1cc(C)cc(/C=C/C#N)c1)c1c(C(N)=O)[nH]c2ccc(Cl)cc12 (centres unmarked) [IDX-12899]
Concentration showing strong β-Gal activity enhancement [1, 9]: ~ 250 nM | CC50 [4]: > 10000 nM | CC50 [5, 12]: 290 ± 210 nM | Cytotoxicity on MT4-LTR-EGFP-IIIB cells, in words [5]: submicromolar range | EC50 (HIV-1IIIB; [13]): 1.9 ± 1.3 nM | EC50 (RT heterodimer (p66/p51); [14]): 4.6 nM | Promotion of RT dimerization, in words (RT heterodimer (p66/p51)): low nM range

Cc1cc(C)c(Nc2ccnc(Nc3ccc(C#N)cc3)n2)c(C)c1 [TMC-120]
Enhancement of alpha complementation [1]: little or no enhancement | CC50 at 4 days [2, 10]: 3020 ± 900 nM | Cytotoxicity on uninfected MT4-CMV-EGFP control cells, in words ([4]; text summary of Table 1, tested range up to 10 μM): comparable toxicity | Stimulation of Gag or Gag-Pol processing [3]: stimulation of Gag processing | CC50 at 4 days (in vitro): 2560 ± 740 nM | Cytotoxicity on MT4-LTR-EGFP-IIIB cells, in words [5]: displayed toxicity | Impairment of cell growth with decrease in β-Gal activity indicative of cytotoxic effects (293T cells): most pronounced | EC50 (HIV-1IIIB; [11]): 1.7 ± 1.4 nM

CC(C)CN(C[C@@H](O)[C@H](Cc1ccccc1)NC(=O)O[C@H]1CO[C@H]2OCC[C@H]21)S(=O)(=O)c1ccc(N)cc1 [DRV, darunavir]
Gag processing under DRV treatment ([6]; 200 nM DRV): impaired | Effect of DRV on the NNRTI effect in CD4-positive primary T-cells ([7]; 100 nM DRV + 1 μM NNRTI + 1 μM AZT): completely reversed

modified Gagα precursor: HIV-1 Gag polyprotein with the β-Gal alpha peptide inserted between MA and CA (from pCHIV.MAα) (from UniProt P12493;P00722)
β-Gal activity (relative rate of CPRG cleavage) in lysates of 293T cells co-transfected with pCMVω and pCHIV.MAα, grown with 2 μM LPV (Gagα processing nearly completely blocked) [8]: 0.054 min^-1

alpha peptide of Escherichia coli beta-galactosidase (amino acids 1-51), released from Gagα by HIV-1 (from UniProt P00722 1-51)
β-Gal activity (relative rate of CPRG cleavage) in lysates of 293T cells co-transfected with pCMVω and pCHIV.MAα, DMSO control [8]: 0.109 min^-1

Cc1cc(S(N)(=O)=O)ccc1NC(=O)COc1ccc(Cl)cc1C(=O)c1cc(Cl)cc(C#N)c1 [GW-678248]
NNRTI mediated enhancement of Gag processing in virus producing cells ([6]; 1 μM, day 2 post addition): decreased ratio of Gag to intermediate and fully mature processing products | Cytotoxicity on infected CD4-positive primary T-cells ([7]; 1 μM NNRTI + 1 μM AZT, 3 days): PR dependent cytotoxicity | Concentration showing strong β-Gal activity enhancement [1, 9]: ~ 250 nM | CC50 [4]: > 10000 nM | CC50 [5, 12]: 630 ± 290 nM | CC50 ([5]; read-out: CC50 on virus producing cells in the absence of DRV, one representative experiment (Fig. 3C), 4 parameter fit): 350 nM | Cytotoxicity on MT4-LTR-EGFP-IIIB cells, in words [5]: submicromolar range | EC50 (HIV-1IIIB; [13]): 0.84 ± 0.25 nM | Infected primary cells (PBMC) as compared with the control (HIV-1AGFP infected PBMC): significant reduction | EC50 (RT heterodimer (p66/p51); [14]): 3.2 nM | Promotion of RT dimerization, in words (RT heterodimer (p66/p51)): low nM range

CCc1nn(CCO)c(CC)c1Oc1cc(C#N)cc(C#N)c1 [UK-453061]
Enhancement of alpha complementation [1]: little or no enhancement | CC50 at 4 days [2]: > 10000 nM | EC50 (HIV-1IIIB; Human immunodeficiency virus 1, 72 h): 7.5 ± 1.4 nM | EC50 (RT heterodimer (p66/p51)): 150 nM
